Each structure is given as a SMILES string. Where a chain is given by its changes, count along the chain named. Read-outs that look alike come from different tables or passages of the source.

Series [1] deals with T1, human muscarinic M3 receptors (Homo sapiens, UniProt P20309).
T1 construct: host or cells: A9L cells
Put plainly: Stimulation of inositol phosphate production in A9L cells, human M3 (IPOne TR-FRET). Particulars: for huM3/A9L Smax: percentage of maximal stimulation by carbachol. Format: cell-based. The method, then: (§1) Muscarinic M1 and M3 agonist activity was evaluated by measuring the stimulation of inositol phosphate (IP) production in the presence of lithium chloride from A9L cells transfected with expression plasmids containing human muscarinic M1 and M3 receptors, respectively. The cell lines were a gift from Professor W Messer, and the methods were as described in Tejada F R et al. J. Med. Chem. 2006; 49: 7518-31 except that the assay was scaled down to run in 384 well plates, and IP was measured in the cell lysates using the non-isotopic IPOne TR-FRET assay (CIS-BIO, Inc).
(§2) Cells were grown to 90% confluence in 384 well hi-base plates (Greiner Bio-One), compounds were added at suitable concentrations in growth medium containing 10 mM LiCL, buffered with an extra 10 mM HEPES (pH7.4), and incubated for 60 minutes at 37° C. Cells were lysed and assayed for IP following the manufacturer's instructions.
(§3) The value for a full agonist is 100%, while partial agonists give values below 100%.
A general note: In TR-FRET formats the signal depends on donor and acceptor labels being close together.

Series [2] deals with T2, human muscarinic M1 receptors (Homo sapiens, UniProt P11229).
T2 construct: host or cells: A9L cells
T2 sequence (P11229 1-460): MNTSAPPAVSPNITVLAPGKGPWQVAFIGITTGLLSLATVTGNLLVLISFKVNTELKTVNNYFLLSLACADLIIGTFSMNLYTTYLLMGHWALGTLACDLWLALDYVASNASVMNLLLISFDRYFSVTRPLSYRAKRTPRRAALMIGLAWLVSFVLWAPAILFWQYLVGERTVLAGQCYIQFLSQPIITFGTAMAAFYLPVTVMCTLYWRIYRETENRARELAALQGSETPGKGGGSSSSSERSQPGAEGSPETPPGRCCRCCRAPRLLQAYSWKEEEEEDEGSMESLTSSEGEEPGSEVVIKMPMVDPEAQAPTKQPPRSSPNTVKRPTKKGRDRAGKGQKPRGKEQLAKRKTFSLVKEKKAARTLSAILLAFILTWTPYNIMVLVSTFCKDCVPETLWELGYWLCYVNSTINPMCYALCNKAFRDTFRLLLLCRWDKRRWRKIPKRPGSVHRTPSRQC
Put plainly: Stimulation of inositol phosphate production in A9L cells, human M1 (IPOne TR-FRET). Format: cell-based. As to conditions: for huM1/A9L Smax: percentage of maximal stimulation by carbachol. The method, then: as §1, §2, §3

In a further series the target is T3, rat M1 receptors (Rattus norvegicus, UniProt P08482).
T3 construct: host or cells: Chinese Hamster Ovary cells (M1-CHO)
T3 sequence (P08482 1-460): T2 sequence (P11229 1-460) with A5V, T254S, P309S, R320K, A337G, I413V
The series can be described thus: PI turnover (inositol phosphate production) in M1-CHO cells. Format: cell-based. As to conditions: M1 versus M3 cell lines. The method, then:
The medium was changed to 70 μL/well of inositol-free DMEM containing 2 mM glutamine, 10% FBS and 10 μCi/ml of [3H]-inositol (PE:cat #NET114A250UC), incubated overnight as above, then 100 μL of a solution of the test compound in HBSS containing 10 mM LiCl and 20 mM HEPES, pH 7.4 was added, incubation was continued for 60 min under the above conditions, and the test was stopped by removing the test compound and replacing with 100 μL of 50 mM formic acid in water at 4° C.

A short description of series [3]: Blood and brain concentrations (rats) after oral gavage. Format: in vivo, rat. The method, then: Long-Evans Hooded rats (Charles River: male, 250-350 g) were dosed with solutions of test compounds in PBS by oral gavage. At the desired time after dosing, the animals were anesthetized with isoflurane, and then euthanized by cervical dislocation. Blood was obtained by cardiac puncture, transferred to a 1.5 mL microcentrifuge tube containing 15U Heparin, and the plasma recovered after centrifugation. Brains were dissected, weighed, immediately chilled to 4° C., and homogenized using a PowerGen 125 homogenizer in five volumes of ice-cold 2% formic acid. Proteins were precipitated from plasma and brain homogenate with two and five volumes respectively of ice-cold 2% formic acid and clarified by centrifugation. The supernatant was ultra-filtered by centrifugation through a 3K MWCO spin column (Pall Life Sciences), following the manufacturer's instructions. The concentration of compound in the ultra-filtrate was subjected to reverse-phase liquid chromatography using a 150×2.1 mm Agilent C8 reverse-phase column on a Shimadzu Prominence LC, eluting the compounds with a gradient of 2% to 50% of acetonitrile+0.1% formic acid for compound MI-50,382, or an isocratic flow of 2% acetonitrile+0.1% formic acid for the rest of the compounds listed. The concentration of the compound in the column effluent was measured using an Applied Biosystems API-3200 triple quadrupole mass spectrometer equipped with an electrospray sample injection system. The counts of the characteristic parent and product ions of each test compound were converted to concentration units by comparison with a standard calibration curve.

Series [4] has as its system pooled male human liver microsomes. Put plainly: Metabolism by human liver microsomes. Format: in vitro ADME. Particulars: for Metabolism in human liver microsomes: 6 hours incubation; for Rate of metabolism, S- versus R-enantiomer: human liver microsomes, as also in rat liver microsomes and FMO Supersomes. The method, then:
Compounds were incubated with pooled male human liver microsomes (BD Biosciences, #452172) and an NADP-regenerating system in a phosphate buffer (pH 7.4) for a total of 6 hours. Aliquots were removed every 2 hours, and 1% formic acid was added to halt the reaction. Samples were centrifuged, filtered through 0.2 micron spinfilter and the amount of each compound in the supernatants was quantitated using LC/MS/MS.

T1 sequence (P20309 whole entry): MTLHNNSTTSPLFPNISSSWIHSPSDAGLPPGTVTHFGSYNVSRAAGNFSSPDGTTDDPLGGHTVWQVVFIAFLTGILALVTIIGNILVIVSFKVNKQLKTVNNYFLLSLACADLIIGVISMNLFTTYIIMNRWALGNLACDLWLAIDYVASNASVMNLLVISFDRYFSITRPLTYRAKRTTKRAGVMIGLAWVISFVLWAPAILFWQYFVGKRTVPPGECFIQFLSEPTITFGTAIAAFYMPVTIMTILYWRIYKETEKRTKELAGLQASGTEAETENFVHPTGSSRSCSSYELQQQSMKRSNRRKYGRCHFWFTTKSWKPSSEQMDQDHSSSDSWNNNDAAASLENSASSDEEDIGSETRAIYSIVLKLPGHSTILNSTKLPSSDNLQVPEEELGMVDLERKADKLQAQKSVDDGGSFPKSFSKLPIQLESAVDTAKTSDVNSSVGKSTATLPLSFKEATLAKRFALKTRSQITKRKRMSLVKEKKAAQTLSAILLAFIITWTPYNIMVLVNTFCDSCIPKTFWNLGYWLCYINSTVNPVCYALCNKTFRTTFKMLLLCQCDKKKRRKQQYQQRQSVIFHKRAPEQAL

As to `c1nsc(C2CCCNC2)n1` (stereo not drawn) [Compound 12b, 5-(piperidin-3-yl)-1,2,4-thiadiazole], in series [1], the “huM3/A9L ED50 relative to CCh” value was “−− (key: ++: potency > 10x CCh; +: potency 2-10x CCh; +/−: potency 0.5-2x CCh; −: potency < 0.5-0.1x CCh; −−: potency < 0.1x CCh; inactive: potency too low to determine)”. The “huM1/A9L ED50 relative to CCh” value in series [2] is “− (key: ++: potency > 10x CCh; +: potency 2-10x CCh; +/−: potency 0.5-2x CCh; −: potency < 0.5-0.1x CCh; −−: potency < 0.1x CCh; inactive: potency too low to determine)”.

As to `Nc1noc(C2CCCNC2)n1` (stereo not drawn) [Compound 27, 3-Amino-5-(piperidin-3-yl)-1,2,4-oxadiazole], the “huM3/A9L ED50 relative to CCh” value in series [1] was “+/− (key: ++: potency > 10x CCh; +: potency 2-10x CCh; +/−: potency 0.5-2x CCh; −: potency < 0.5-0.1x CCh; −−: potency < 0.1x CCh; inactive: potency too low to determine)”. Besides, in series [2], the “huM1/A9L ED50 relative to CCh” value was “+ (key: ++: potency > 10x CCh; +: potency 2-10x CCh; +/−: potency 0.5-2x CCh; −: potency < 0.5-0.1x CCh; −−: potency < 0.1x CCh; inactive: potency too low to determine)”.

Consider `Cl.[2H]C([2H])(C)c1noc(C2CN=CNC2)n1` (stereo not drawn) [compound 6, 3-(1,1-d2-ethyl)-5-(1,4,5,6-tetrahydropyrimidin-5-yl)-1,2,4-oxadiazole hydrochloride], for which the “Functional selectivity for M1 subtype by PI turnover” value on rat M1 receptors was “M1-subtype functionally selective muscarinic agonists”. Moreover, in series [3] (rat brain, 10 mg/kg po, 1 hr, relative to MCD-386), the “Brain Cmax (10 mg/kg po) 1 hr MCD-386 = 1.00” value was determined as 0.82. In addition, the “Penetration into the brain” value in series [3] (rats after oral dosing) is listed as “penetrated into the brain”.

On to `Cc1noc([C@H]2CCCN[C@@H]2C)n1` [Compound 23], for which the “huM3/A9L Smax” value in series [1] came out at 19%. For the same compound, the “huM1/A9L Smax” value in series [2] was 23%.

With `Cc1noc([C@H]2CCCN[C@@H]2C)n1` [Compound 22], the “huM3/A9L Smax” value in series [1] came out at 15%. Besides, the “huM1/A9L Smax” value in series [2] is recorded as 7%.

`Cc1noc([C@H]2CCCNC2)n1` [Compound 3a, S-(+)-3-methyl-5-(piperidin-3-yl)-1,2,4-oxadiazole]: in series [1], the “huM3/A9L ED50 relative to CCh” value was “+/− (key: ++: potency > 10x CCh; +: potency 2-10x CCh; +/−: potency 0.5-2x CCh; −: potency < 0.5-0.1x CCh; −−: potency < 0.1x CCh; inactive: potency too low to determine)”. Also, in series [4], the “Metabolism in human liver microsomes” value is recorded as “metabolized significantly less in human liver microsomes than in rat liver microsomes” and the “Rate of metabolism, S- versus R-enantiomer” value is “metabolized faster than the R-enantiomers”. Besides, the “huM1/A9L ED50 relative to CCh” value in series [2] was “+ (key: ++: potency > 10x CCh; +: potency 2-10x CCh; +/−: potency 0.5-2x CCh; −: potency < 0.5-0.1x CCh; −−: potency < 0.1x CCh; inactive: potency too low to determine)”.

`Cc1nsc(C2CCCNC2)n1.Cl` (stereo not drawn) [Compound 12a, 3-methyl-5-(piperidin-3-yl)-1,2,4-thiadiazole hydrochloride]: the “huM3/A9L ED50 relative to CCh” value in series [1] is “+ (key: ++: potency > 10x CCh; +: potency 2-10x CCh; +/−: potency 0.5-2x CCh; −: potency < 0.5-0.1x CCh; −−: potency < 0.1x CCh; inactive: potency too low to determine)”. Further, the “huM1/A9L ED50 relative to CCh” value in series [2] was “+ (key: ++: potency > 10x CCh; +: potency 2-10x CCh; +/−: potency 0.5-2x CCh; −: potency < 0.5-0.1x CCh; −−: potency < 0.1x CCh; inactive: potency too low to determine)”.

`Cc1noc([C@@H]2CCCNC2)n1` [Compound 3b, R-(−)-3-methyl-5-(piperidin-3-yl)-1,2,4-oxadiazole]: in series [1], the “huM3/A9L ED50 relative to CCh” value was “− (key: ++: potency > 10x CCh; +: potency 2-10x CCh; +/−: potency 0.5-2x CCh; −: potency < 0.5-0.1x CCh; −−: potency < 0.1x CCh; inactive: potency too low to determine)”. For the same compound, the “Metabolism in human liver microsomes” value in series [4] is listed as “metabolized significantly less in human liver microsomes than in rat liver microsomes”. Also, the “huM1/A9L ED50 relative to CCh” value in series [2] is “+/− (key: ++: potency > 10x CCh; +: potency 2-10x CCh; +/−: potency 0.5-2x CCh; −: potency < 0.5-0.1x CCh; −−: potency < 0.1x CCh; inactive: potency too low to determine)”.

For the compound `[2H]C([2H])([2H])c1noc([C@@H]2CCCNC2)n1` [Compound 7b, R-(−)-3-D3-methyl-5-(piperidin-3-yl)-1,2,4-oxadiazole], in series [1], the “huM3/A9L ED50 relative to CCh” value is “+/− (key: ++: potency > 10x CCh; +: potency 2-10x CCh; +/−: potency 0.5-2x CCh; −: potency < 0.5-0.1x CCh; −−: potency < 0.1x CCh; inactive: potency too low to determine)”. Besides, the “Metabolism in human liver microsomes” value in series [4] is “metabolized significantly less in human liver microsomes than in rat liver microsomes”. In addition, the “huM1/A9L ED50 relative to CCh” value in series [2] is “+ (key: ++: potency > 10x CCh; +: potency 2-10x CCh; +/−: potency 0.5-2x CCh; −: potency < 0.5-0.1x CCh; −−: potency < 0.1x CCh; inactive: potency too low to determine)”.

As to `Cc1noc([C@H]2CCCN[C@@H]2C)n1` [Compound 20], the “huM1/A9L Smax” value in series [2] is 9%.

For the compound `[2H]C([2H])([2H])c1noc([C@H]2CCCNC2)n1` [Compound 7a, S-(+)-3-D3-methyl-5-(piperidin-3-yl)-1,2,4-oxadiazole], the “huM3/A9L ED50 relative to CCh” value in series [1] is “−− (key: ++: potency > 10x CCh; +: potency 2-10x CCh; +/−: potency 0.5-2x CCh; −: potency < 0.5-0.1x CCh; −−: potency < 0.1x CCh; inactive: potency too low to determine)”. In series [4], the “Metabolism in human liver microsomes” value is “metabolized significantly less in human liver microsomes than in rat liver microsomes” and the “Rate of metabolism, S- versus R-enantiomer” value is reported as “metabolized faster than the R-enantiomers”. Further, the “huM1/A9L ED50 relative to CCh” value in series [2] is “+/− (key: ++: potency > 10x CCh; +: potency 2-10x CCh; +/−: potency 0.5-2x CCh; −: potency < 0.5-0.1x CCh; −−: potency < 0.1x CCh; inactive: potency too low to determine)”.

`Cc1noc([C@H]2CCCN[C@@H]2C)n1` [Compound 24]: the “huM3/A9L Smax” value in series [1] is listed as 32%. For the same compound, in series [2], the “huM1/A9L ED50 relative to CCh” value was “−− (key: ++: potency > 10x CCh; +: potency 2-10x CCh; +/−: potency 0.5-2x CCh; −: potency < 0.5-0.1x CCh; −−: potency < 0.1x CCh; inactive: potency too low to determine)” and the “huM1/A9L Smax” value is on record as 41%.

Consider `Cc1noc([C@H]2CCCN[C@@H]2C)n1` [Compound 19], for which the “huM3/A9L Smax” value in series [1] amounted to 34%. In series [2], the “huM1/A9L Smax” value was determined as 15%.

In the case of `Cc1noc(C2CCNC2)n1` (stereo not drawn) [Compound 31, 3-methyl-5-(pyrrolidin-3-yl)-1,2,4-oxadiazole], in series [1] (potency class relative to carbachol), the “huM3/A9L ED50 relative to CCh” value is on record as “− (potency < 0.5-0.1x CCh)”.

In the case of `Cc1noc([C@H]2CCCN[C@@H]2C)n1` [Compound 21], the “huM3/A9L Smax” value in series [1] is listed as 14%. Further, the “huM1/A9L Smax” value in series [2] was 18%.

The record behind these values is patent US8853219B2, “Compounds and compositions for cognition-enhancement, methods of making, and methods of treating” (NeuroSolis, Inc., priority 2010, dated 2014).
